Columns and labels:
[1] = system: NB tumours; set-up: method as in PMID 15490487, PMID 3181182, PMID 22700000; details: NB patients; cited from earlier work
[2] = Biodistribution and PET statements pooled over Kelly and SK-N-BE(2)C xenograft-bearing mice; format: in vivo; details: ^123I-mIBG 24 h p.i.
Protocol: When the tumours reached approximately 100–200 mm^3, mice were anaesthetised with an isoflurane/O2 mixture (1.5–2.0% v/v) and intravenously injected with either ^18F-mFBG (~ 7.5 MBq) or ^123I-mIBG (~ 20 MBq). Mice were then imaged using an Albira PET/SPECT/CT scanner (Bruker, Coventry, UK). […] Acquisition, reconstruction and image analysis were performed as described previously. Following the final scan, the mice were sacrificed and the major organs were excised, weighed and their associated radioactivity was measured using a γ-counter. Biodistribution and image quantification were expressed as a percentage of injected dose per gram of tissue (%ID/g), whereby 1 cm^3 on PET acquisitions were assumed to equal 1 g (n ≥ 3 mice ± SD).

[3] = biological target: T1, NET-1 (Homo sapiens, UniProt P23975); assay: ^18F-mFBG / ^123I-mIBG uptake in NB cell lines with and without desipramine; format: cell-based; details: 1 h at 37 °C, rank among Kelly, SK-N-SH, NBLS
T1 construct: SK-N-SH, SK-N-BE(2)C, Kelly, NBLS human NB cell lines; endogenous in cells; host or cells: SK-N-SH, SK-N-BE(2)C, Kelly, NBLS human neuroblastoma cell lines
T1 sequence (P23975 whole entry): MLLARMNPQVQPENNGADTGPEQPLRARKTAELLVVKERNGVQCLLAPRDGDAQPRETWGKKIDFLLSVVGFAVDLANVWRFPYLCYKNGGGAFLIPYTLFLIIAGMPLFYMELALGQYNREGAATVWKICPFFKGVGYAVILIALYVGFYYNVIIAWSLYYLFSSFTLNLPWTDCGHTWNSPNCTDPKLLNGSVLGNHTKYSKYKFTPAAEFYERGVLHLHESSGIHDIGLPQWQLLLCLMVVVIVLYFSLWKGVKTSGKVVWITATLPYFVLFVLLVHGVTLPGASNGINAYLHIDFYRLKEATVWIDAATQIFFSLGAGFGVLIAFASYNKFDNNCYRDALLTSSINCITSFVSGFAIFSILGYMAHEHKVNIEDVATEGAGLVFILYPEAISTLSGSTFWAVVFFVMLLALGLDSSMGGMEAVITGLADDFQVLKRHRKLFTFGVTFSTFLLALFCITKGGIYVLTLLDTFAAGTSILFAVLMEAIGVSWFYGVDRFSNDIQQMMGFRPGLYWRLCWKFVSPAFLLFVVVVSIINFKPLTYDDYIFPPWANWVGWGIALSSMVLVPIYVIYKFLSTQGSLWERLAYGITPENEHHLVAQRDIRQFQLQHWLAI
Text: Figure 1 (a) Simplified radiosynthesis scheme of ^18F-mFBG by copper-mediated deborylation. (b) Total NET-1 protein expression in selected NB cell lines determined by Western blot. Full length blots are presented in Supplementary Figure WB1. […] Data are presented as mean ± SEM, n ≥ 2 per group, performed in triplicate. Graphs are generated using GraphPad Prism (v 8.4.1), https://www.graphpad.com.
For each cell line the cell-associated radioactivity was normalised to the number of cells and then each group was presented as a percentage of the signal acquired for SK-N-BE(2)C cells (mean of n = 3 independent experiments performed in triplicate ± SEM).

[4] = system: mTORC1/2; assay: Ex vivo IHC/Western blot of mTOR signalling in treated tumours; set-up: species or system mice; details: Kelly xenografts 25 mg/kg/day, 3 days
Protocol: (§1) Western blotting (WB) was performed as previously described. Antibodies were obtained from Cell Signalling Technologies (London, UK) unless stated otherwise: GAPDH, beta-actin, p-Akt^S473, Akt, p-4EBP1^T37/46, p-S6^S240/244, S6, N-MYC (Merck Millipore, Watford, UK), NET-1 (mAbTechnologies, Stone Mountain, Georgia), anti-rabbit HRP, anti-mouse HRP. Blots were visualised with SuperSignal West Pico and Femto Chemiluminescent Substrate (Thermo Fisher Scientific, Loughborough, UK) and ChemiDoc XRS + System (BioRad, Watford, UK). Data were processed and band density analysed with ImageJ and Image Lab 6.0 (BioRad, Watford, UK).
Formalin-fixed (10% v/v) paraffin-embedded tumours were sectioned to a thickness of 5 µm. Tumour sections underwent heat-induced epitope retrieval with a citric acid based antigen unmasking solution (H3300, Vector Laboratories, Peterborough, UK). The primary NET-1 antibody (AMT-002, Alomone Labs, Jerusalem, Israel), p-S6^S240/244 and p-4EBP1^T37/46 were added and incubated overnight at 4 °C. Endogenous peroxidases were blocked (2% H2O2 in methanol, 10 min, RT) before incubation with a secondary HRP-conjugated antibody. For chromogen development, slides were processed using a diaminobenzidine (DAB)-peroxidase substrate kit (4 min, Immpact DAB, SK-4105, Vector Laboratories, Peterborough, UK). […]

[5] = system: SK-N-BE(2)C cells; assay: Cell viability (CellTiter-Glo) after 72 h AZD2014, SK-N-BE(2)C; format: cell-based; details: Homo sapiens, read-out: GI50 (concentration that reduced cell viability by 50%)
Protocol: (§2) To assess the cellular response to mTORC1/2 inhibition, Kelly and SK-N-BE(2)C cell lines, both of which over-express MYCN protein (Fig. 1b), were incubated with AZD2014 (0 to 1 µM) for 72 h. […] Key substrates of AZD2014- induced mTORC1/2 inhibition were assessed by WB.
(§3) Supplementary Figure 5: NB cell viability after 72 h treatment with AZD2014 (0–1 µM) analysed by Celltiter Glo assay. Data presented as mean ± SEM, n ≥ 3 per group, performed in triplicate. Graph is generated using GraphPad Prism (v 8.4.1), https://www.graphpad.com.

[6] = biological target: T1, NET-1; assay: Radiotracer cell uptake after AZD2014 pre-treatment, SK-N-BE(2)C cells; format: cell-based; details: for increase of ^18F-mFBG uptake: vs untreated control
Protocol: (§4) To investigate potential changes in NET-1 function following an AZD2014-induced increase in protein expression, ^18F-mFBG and ^123I-mIBG cell uptake assays were performed in Kelly and SK-N-BE(2)C cells incubated with the drug (0–500 nM) for 24 and 72 h. […] Perhaps due to the already high expression of NET-1, increase in radiotracer uptake was less evident in SK-N-BE(2)C cells (39 ± 9% and 62 ± 5%, respectively). […].
(§5) To test the response of cell uptake using the mTOR1/2 inhibitor AZD2014 (0–500 nM) (vistusertib, Stratech Scientific, Ely, UK), a stock solution of the drug (10 mM) in dimethyl sulfoxide (DMSO, Sigma Aldrich, Gillingham, UK) was initially prepared and then diluted in culture medium to a final DMSO concentration of < 0.1%. Radiotracer uptake was assessed in cells 24 and 72 h after incubation with AZD2014. The uptake was normalised to cell viability as performed using the CellTiter-Glo assay (Promega, Southampton, UK). The data are expressed as the average of n = 3 independent experiments (performed in triplicate) ± SEM.

[7] = system: Kelly xenografts; assay: AZD2014 treatment of Kelly xenograft mice (body weight, tumour growth); format: in vivo; details: 25 mg/kg/day
Protocol: All studies were conducted in compliance with licenses issued under the UK Animals (Scientific Procedures) Act 1986 and approved by the Institute of Cancer Research Animal Welfare and Ethical Review Body (AWERB) according to the United Kingdom National Cancer Research Institute Guidelines for Animal Welfare in Cancer Research (project license PCC916B22, Animals in Science Regulation Unit, Home Office Science, London, UK)[65]. […]; 20–22 g) obtained from an in-house breeding colony were used in the studies. Animals were housed in a temperature-controlled facility with 12 h on–12 h off light cycle and provided water and laboratory rodent food ad libitum. Subcutaneous xenografts were generated by injection of either Kelly (5 × 10^6/0.1 mL PBS/Matrigel 30% v/v; BD Matrigel Matrix, BD Bioscience, San Jose, California, US) or SK-N-BE(2)C (1 × 10^6/0.1 mL PBS/Matrigel) into the lower flank. For the treatment studies, AZD2014 stock solution in DMSO was diluted in PEG400 to a final concentration of 2 mg/mL (10% DMSO maximum). When tumours reached ~ 100 mm^3 (calliper measurements using formula: Volume = (Width(2) × Length)/2), mice were treated daily, for a total of either 1, 3 or 7 days, by oral gavage with AZD2014 (20 or 25 mg/kg/day) or vehicle control. Mice were monitored daily for body weight or other adverse effects.

[8] = system: NET-1; assay: Radiotracer cell uptake after AZD2014 pre-treatment, Kelly cells; format: cell-based, human; details: for increase of ^18F-mFBG uptake: vs untreated control
Protocol: as §4, §5

[9] = system: mTORC1/2; assay: Western blot of mTORC1/2 substrates in Kelly and SK-N-BE(2)C cells; format: cell-based, human
Protocol: as §1

[10] = system: NET-1; assay: Western blot of total NET-1 protein in SK-N-BE(2)C cells after AZD2014; format: cell-based, human; details: seen at 24 h, maintained at 72 h
Protocol: Given the potential role of Akt in NET-1 protein synthesis and surface expression, we further looked at NET-1 protein levels following AZD2014 treatment. […] In Kelly cells, the WB analysis was not sensitive enough to detect and accurately quantify the inherently low expression of the target protein.
as §1

[11] = system: Kelly cells; assay: Cell viability (CellTiter-Glo) after 72 h AZD2014, Kelly; format: cell-based; details: Homo sapiens, read-out: GI50 (concentration that reduced cell viability by 50%)
Protocol: as §2, §3

[12] = system: NET-1; assay: Ex vivo Western blot of NET-1 in tumour lysates of treated animals; set-up: species or system mice
Protocol: as §1

[13] = Kelly and SK-N-BE(2)C, Western blot

## N=C(N)NCc1cccc([131I])c1 [^131I-mIBG, meta-iodobenzylguanidine]
[1]
  clinical response: 0 to 57%

## NC(N)=NCc1cccc(I)c1 [^123I-mIBG, meta-iodobenzylguanidine, reference compound]
[2]
  Tumour-to-background ratios compared with ^18F-mFBG: greater
[3]
  cell-associated radioactivity, SK-N-BE(2)C: greatest uptake
[3]; SK-N-BE(2)C
  cell-associated radioactivity, Kelly: least uptake

## CNC(=O)c1cccc(-c2ccc3c(N4CCOC[C@@H]4C)nc(N4CCOC[C@@H]4C)nc3n2)c1 [AZD2014]
[4]
  mTORC1/2 inhibition in vivo (p-S6^S240/244, p-4EBP1^T37/46 IHC): failed to inhibit
[5]
  GI50: 307 nM
[6]; 200 nM AZD2014, 72 h
  increase of ^18F-mFBG uptake: 39 ± 9%
[6]; 500 nM AZD2014, 72 h
  increase of ^18F-mFBG uptake: 62 ± 5%
[6]; AZD2014 0–500 nM, 24 h
  ^123I-mIBG and ^18F-mFBG uptake: concentration-dependent increase
[7]; oral gavage, 3 days post-treatment initiation
  body weight lost compared to the vehicle control: ~ 10%
[7]; Kelly xenografts, n = 3, p < 0.0001
  tumour growth: impeded
[8]; 200 nM AZD2014, 72 h
  increase of ^18F-mFBG uptake: 128 ± 23%
[8]; 500 nM AZD2014, 72 h
  increase of ^18F-mFBG uptake: 292 ± 27%
[8]; AZD2014 0–500 nM, 24 h
  ^123I-mIBG and ^18F-mFBG uptake: concentration-dependent increase
[9]; [13]
  MYCN protein expression: not robustly reduced
  phosphorylation of S6 and 4EBP1: concentration dependent decrease
[9]; both cell lines, after 72 h incubation
  p-Akt^S473 inhibition: not sustained
[9]; both cell lines, early time points (3–12 h)
  p-Akt^S473: concentration-dependent downregulation
[10]
  total NET-1 protein expression: prominent and persistent increase
[11]
  GI50: 476 nM
[12]; Kelly, 25 mg/kg/day 3 days, p = 0.84, n = 2
  NET-1 expression in tumour lysates, control vs treated: no difference
[12]; SK-N-BE(2)C, 20 mg/kg/day 3 days, not significant (p = 0.07, n = 4)
  NET-1 expression in tumour lysates: increase

Source: article PMC7708446, “^18F-meta-fluorobenzylguanidine (^18F-mFBG) to monitor changes in norepinephrine transporter expression in response to therapeutic intervention in neuroblastoma models” (Scientific Reports, 2020)
